Data from US12396996B2, “Compounds, pharmaceutical compositions, and methods of their use in reversing cancer chemoresistance” (priority 2019, dated 2025).

Columns and labels:
HMLE-SNAIL spheroids = test: 3-D tumor spheroid assay (Sytox/DAPI staining); format: cell-based, human; conditions: Sytox staining
From the text: (§1) FIGS. 1F-1I show the results of a 3-D tumor spheroid assay formed by the chemotherapy-resistant breast cancer cell line, HMLE-SNAIL. […] Tumor spheroids are a model of real in vivo tumors, as they form a 3-D cell mass in which the hypoxic and often nutrient depleted microenvironment at the center of the tumor is enriched with mesenchymal, chemotherapy-resistant TIC cells. […] By staining spheroids with Sytox, which stains dead cells green, and DAPI, which stains the nuclei of all cells (living or dead), total fraction of dead cells is calculated. Also, the location of dead cells within the sphere is visualized with Sytox (green) staining. The results of FIGS. 1F-1I indicate that chaetocin a selective and potent killer of inner cells of the spheroids, enriched with mesenchymal, chemotherapy-resistant TIC cells, compared to other compounds tested. FIGS. 1J-1K show the results of a tumorsphere assay performed with TICs grown on serum-free, non-adherent culture conditions. […] The results of FIGS. 1J-1K indicate that chaetocin is effective in eliminating TICs in a dose dependent-manner.
To determine whether chaetocin affects TIC death in a tumor-like environment, 3-D tumor spheroid assays were performed in the presence or absence of chaetocin. Tumor spheroids are a model of a real tumor, as they form a 3-D cell mass similar to tumors in vivo. The local microenvironment of a spheroid recapitulates many of the in vivo properties of tumor. Importantly, the hypoxic and often nutrient depleted microenvironment at the center of the tumor is favorable for converting epithelial, non-TIC, chemotherapy-sensitive cancer cells into mesenchymal, TIC-rich, chemotherapy-resistant cells. […] Pharmacological agents were added and cell viability was calculated by staining cells with Sytox, which stains dead cells green, and DAPI, which stains the nuclei of all cells (living or dead). to provide the total cell number. Using this method, the total fraction of dead cells was calculated and compared between different drug conditions. More importantly, the location of dead cells within the sphere is visualized with Sytox (green) staining. FIGS. 1G-1I show fluorescence images of tumor spheroids under control conditions (no treatment; FIG. 1G), under treatment with various experimental chemotherapeutic agents (Y-27632, LY-450139, and IWP-L6 (Wnt); FIG. 1H), and with chaetocin treatment (FIG. 1I). […] This family of kinases are thought to be important for survival of TIC cells. IWP-L6 is an inhibitor of Wnt pathway—a pathway important for TIC cell survival and formation. LY-450139 is a NOTCH pathway inhibitor. NOTCH is also important for TIC cell viability and survival. […]

[1] = tested on: TICs (cancer stem/progenitor cells); test: Tumorsphere assay; format: cell-based; conditions: 0, 30, 80 nM; 14 days of culture
From the text: as §1
To further determine the effect of chaetocin on eliminating TICs, a tumorsphere assay was performed on cancer cells under increasing concentrations of chaetocin. A tumorsphere is a solid spherical formation developed from the proliferation of one cancer stem/progenitor cell. […]

HMLE-TWIST cells [2] = test: E-cadherin (E-cad) level after chaetocin pulse; format: cell-based, human; conditions: 80 nM or 200 nM for 15 hours, then 1, 2, 4 days chaetocin-free
Experimental: Levels of an epithelial marker, E-cadherin (E-cad) were assayed at 15H, 1 D, 2D, and 4D after chaetocin treatment and the fraction of E-cad positive cells was quantified.
To molecularly test whether chaetocin treatment converts mesenchymal cells into epithelial cells, HMLE-TWIST cells were treated with a pulse of chaetocin for 15 hours (15H), washed and then incubated in chaetocin-free media for 1 day (1D), 2 days (2D), and 4 days (4D). Levels of the ubiquitous epithelial marker E-cadherin (E-cad) was assayed using Western blots throughout the experiment.

HMLE-TWIST cells [3] = conditions: 20, 50, 100 nM for 5 or 15 hours, two days chaetocin-free, then doxorubicin
Experimental: Doxorubicin was added after two days and cell death was assayed with cleaved caspase-3 intensity.
To determine if EMT reversal with chaetocin can sensitize TIC-rich breast cancer cells, namely HMLE-TWIST cells, to conventional chemotherapeutic agents, cells were treated for 5 or 15 hours with different concentrations of chaetocin (20 nM, 50 nM, and 100 nM), as is schematized in FIG. 4A. Cells were then washed and incubated in chaetocin-free media for two days. Doxorubicin was then added, and cell death was assayed using FACS analysis of caspase-3 cleavage two days after doxorubicin addition.

HMLE-TWIST cells [4] = test: RNA-seq after two days of chaetocin and two days after removal (Enrichr); format: cell-based, human; conditions: versus DMSO, cells found to have mycoplasma infection
Experimental: Briefly, HMLE-TWIST cells were treated for two days with increasing doses of chaetocin (0.1, 0.15, 0.2, 0.5 uM). The cells were then washed and incubated for an additional 2 days in chaetocin-free media. Cells were collected before chaetocin treatment and at the 2-day and 4-day timepoints. Total RNA was extracted and subjected to deep sequencing. All chaetocin-treated transcriptomes were compared to cells treated with DMSO for 2 and 4 days which served as controls.
Using FACS (see FIGS. 3A-3X), it was shown that mesenchymal, TIC-rich HMLE-TWIST cells treated with increasing doses of chaetocin lose their mesenchymal properties. […] All transcriptomes were compared to the corresponding DMSO-treated controls.
The results for two representative chaetocin concentrations ([…]) are shown. Other concentrations produced a highly similar list of pathways. Only pathways whose enrichment is associated with an adjusted p value of less than 0.05 are indicated. Pathways listed in italicized font are those which have a known role in promoting the formation of the mesenchymal state in published literature. The pathways marked with an asterisk in tables above are those having known roles as tumor suppressors.
The results for two representative chaetocin concentrations ([…]) are shown. Other concentrations produced a highly similar list of pathways. […]

CN1C(=O)[C@@]23C[C@]4([C@]56C[C@@]78SS[C@](CO)(C(=O)N7[C@H]5Nc5ccccc56)N(C)C8=O)c5ccccc5N[C@@H]4N2C(=O)[C@@]1(CO)SS3 [chaetocin]
location of dead cells within spheroid (HMLE-SNAIL spheroids): preferentially and effectively kills the inner spheroid cells
number of tumorspheres per well [1]: can eliminate TICs at low doses
E-cadherin level (mesenchymal to epithelial conversion) (HMLE-TWIST cells [2]): stable epigenetic change in cell phenotype converting mesenchymal cancer cells into epithelial ones
reversal of resistance to doxorubicin (caspase-3 cleavage) (HMLE-TWIST cells [3]): reverses chemotherapy resistance of mesenchymal, TIC-rich HMLE-TWIST cells to doxorubicin
pathways changed after two days of treatment (HMLE-TWIST cells [4]; 0.1, 0.15, 0.2, 0.5 uM for two days): repression of several mesenchymal pathways and an increase in DNA repair and two important tumor suppressing pathways, p53 and Rb
persistence of transcriptional changes (HMLE-TWIST cells [4]; 2 days after chaetocin removal): transcriptional changes persist after chaetocin removal
